pIC50: −log10 of the molar value.
What follows are compounds tested against human recombinant H-PGDS (Homo sapiens, UniProt O60760) (assay: Fluoresecence Intensity h-PGDSTBA Enzyme Assay). Conditions: IC50, 5.0 μM PGH2, 2.5 mM L-Glutathione, 10 min preincubation, 4-parameter fit, highest inhibitor concentration typically 1 μM.
human recombinant H-PGDS, sequence (O60760 whole entry): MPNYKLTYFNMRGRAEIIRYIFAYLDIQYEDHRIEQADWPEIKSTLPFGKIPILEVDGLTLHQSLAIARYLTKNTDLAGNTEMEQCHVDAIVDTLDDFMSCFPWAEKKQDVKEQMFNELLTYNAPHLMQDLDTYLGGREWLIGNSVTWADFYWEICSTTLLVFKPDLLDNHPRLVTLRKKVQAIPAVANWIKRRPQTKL

Row | pIC50 | Compound
1 | 6.00 | O=C(NC1CCN(Cc2ccccn2)CC1)c1cnc(-c2ccccc2)nc1O [Example 21, 4-Hydroxy-2-phenyl-N-[1-(pyridin-2-ylmethyl)piperidin-4-yl]pyrimidine-5-carboxamide]
2 | ≤ 6.00 | O=C(NC1CCN(CC(F)(F)F)CC1)c1cnc(-c2ccccc2)nc1O [Example 22, 4-Hydroxy-2-phenyl-N-[1-(2,2,2-trifluoroethyl)piperidin-4-yl] pyrimidine-5-carboxamide]
3 | ≤ 6.00 | COc1cccc(OC)c1CN1CCC(NC(=O)c2cnc(-c3ccccc3)nc2O)CC1 [Example 23, N-[1-(2,6-Dimethoxybenzyl)piperidin-4-yl]-4-hydroxy-2-phenyl-pyrimidine-5-carboxamide]
4 | ≤ 6.00 | CC(C)N1CCC(NC(=O)c2cnc(-c3ccccc3)nc2O)CC1 [Example 24, 4-Hydroxy-N-(1-isopropylpiperidin-4-yl)-2-phenyl pyrimidine-5-carboxamide]
5 | 9.43 | CNC(=O)N1CCC(NC(=O)c2cnc(-c3cccc(F)c3)nc2)CC1 [Example 25, 2-(3-Fluorophenyl)-N-{1-[(methylamino)carbonyl]piperidin-4-yl}pyrimidine-5-carboxamide]
6 | 9.87 | O=C(NC1CCN(c2cccnn2)CC1)c1cnc(-c2cccc(F)c2)nc1 [Example 26, 2-(3-Fluorophenyl)-N-(1-pyridazin-3-ylpiperidin-4-yl)pyrimidine-5-carboxamide]
7 | 9.78 | O=C(NC1CCN(CC(F)(F)F)CC1)c1cnc(-c2cccc(F)c2)nc1 [Example 27, 2-(3-Fluorophenyl)-N-[1-(2,2,2-trifluoroethyl)piperidin-4-yl]pyrimidine-5-carboxamide]
8 | 8.35 | N#Cc1ccc(OCC(c2ccccc2)N2CCC(NC(=O)c3cnc(-c4cccc(F)c4)nc3)CC2)cc1F (stereo not drawn) [Example 28, N-{1-[2-(4-Cyano-3-fluorophenoxy)-1-phenylethyl]piperidin-4-yl}-2-(3-fluorophenyl)pyrimidine-5-carboxamide]
9 | 7.94 | O=C(NC1CCN(C(COc2c(F)cccc2Cl)c2ccccc2)CC1)c1cnc(-c2cccc(F)c2)nc1 (stereo not drawn) [Example 29, N-{1-[2-(2-Chloro-6-fluorophenoxy)-1-phenylethyl]piperidin-4-yl}-2-(3-fluorophenyl)pyrimidine-5-carboxamide]
10 | 8.18 | O=C(NC1CCN(C(COc2c(F)cccc2F)c2ccccc2)CC1)c1cnc(-c2cccc(F)c2)nc1 (stereo not drawn) [Example 30, N-{1-[2-(2,6-Difluorophenoxy)-1-phenylethyl]piperidin-4-yl}-2-(3-fluorophenyl)pyrimidine-5-carboxamide]
11 | 8.11 | N#Cc1cc(Cl)ccc1OCC(c1ccccc1)N1CCC(NC(=O)c2cnc(-c3cccc(F)c3)nc2)CC1 (stereo not drawn) [Example 31, N-{1-[2-(4-Cchloro-2-cyanophenoxy)-1-phenylethyl]piperidin-4-yl}-2-(3-fluorophenyl)pyrimidine-5-carboxamide]
12 | 8.05 | O=C(NC1CCN(C(COc2c(F)cc(F)cc2F)c2ccccc2)CC1)c1cnc(-c2cccc(F)c2)nc1 (stereo not drawn) [Example 32, 2-(3-Fluorophenyl)-N-{1-[1-phenyl-2-(2,4,6-trifluorophenoxy)ethyl]piperidin-4-yl}pyrimidine-5-carboxamide]
13 | 7.81 | O=C(NC1CCN(C(COc2c(F)ccc(Cl)c2F)c2ccccc2)CC1)c1cnc(-c2cccc(F)c2)nc1 (stereo not drawn) [Example 33, N-{1-[2-(3-Chloro-2,6-difluorophenoxy)-1-phenylethyl]piperidin-4-yl}-2-(3-fluorophenyl)pyrimidine-5-carboxamide]
14 | 8.19 | O=C(NC1CCN(C(COc2cc(F)cc(F)c2)c2ccccc2)CC1)c1cnc(-c2cccc(F)c2)nc1 (stereo not drawn) [Example 34, N-{1-[2-(3,5-Difluorophenoxy)-1-phenylethyl]piperidin-4-yl}-2-(3-fluorophenyl)pyrimidine-5-carboxamide]
15 | 9.21 | O=C(NC1CCN(CC2CC2)CC1)c1cnc(-c2cccc(F)c2)nc1 [Example 35, N-[1-(Cyclopropylmethyl)piperidin-4-yl]-2-(3-fluorophenyl)pyrimidine-5-carboxamide]
16 | 8.34 | O=C(NC1CCN(Cc2ccc(OC(F)(F)F)cc2)CC1)c1cnc(-c2cccc(F)c2)nc1 [Example 36, 2-(3-Fluorophenyl)-N-{1-[4-(trifluoromethoxy)benzyl]piperidin-4-yl}pyrimidine-5-carboxamide]
17 | 8.15 | O=C(NC1CCN(Cc2ccc(C(F)(F)F)c(F)c2)CC1)c1cnc(-c2cccc(F)c2)nc1 [Example 37, 2-(3-Fluorophenyl)-N-{1-[3-fluoro-4-(trifluoromethyl)benzyl]piperidin-4-yl}pyrimidine-5-carboxamide]
18 | 8.17 | O=C(NC1CCN(C(COc2ccccc2)c2ccccc2)CC1)c1cnc(-c2cccc(F)c2)nc1 (stereo not drawn) [Example 38, 2-(3-Fluorophenyl)-N-[1-(2-phenoxy-1-phenylethyl)piperidin-4-yl]pyrimidine-5-carboxamide]

Row | pIC50 | Compound
19 | 8.35 | COc1cccc(OCC(c2ccccc2)N2CCC(NC(=O)c3cnc(-c4cccc(F)c4)nc3)CC2)c1 (stereo not drawn) [Example 39, 2-(3-Fluorophenyl)-N-{1-[2-(3-methoxyphenoxy)-1-phenylethyl]piperidin-4-yl}pyrimidine-5-carboxamide]
20 | 8.52 | N#Cc1cccc(OCC(c2ccccc2)N2CCC(NC(=O)c3cnc(-c4cccc(F)c4)nc3)CC2)c1 (stereo not drawn) [Example 40, N-{1-[2-(3-Cyanophenoxy)-1-phenylethyl]piperidin-4-yl}-2-(3-fluorophenyl)pyrimidine-5-carboxamide]
21 | 7.99 | O=C(NC1CCN(C(COc2cccc(Cl)c2)c2ccccc2)CC1)c1cnc(-c2cccc(F)c2)nc1 (stereo not drawn) [Example 41, N-{1-[2-(3-Chlorophenoxy)-1-phenylethyl]piperidin-4-yl}-2-(3-fluorophenyl)pyrimidine-5-carboxamide]
22 | 7.26 | O=C(NC1CCN(C(COc2ccc(F)c(Cl)c2)c2ccccc2)CC1)c1cnc(-c2cccc(F)c2)nc1 (stereo not drawn) [Example 42, N-{1-[2-(3-Chloro-4-fluorophenoxy)-1-phenylethyl]piperidin-4-yl}-2-(3-fluorophenyl)pyrimidine-5-carboxamide]
23 | 7.46 | Cc1ccc(Cl)c(OCC(c2ccccc2)N2CCC(NC(=O)c3cnc(-c4cccc(F)c4)nc3)CC2)c1F (stereo not drawn) [Example 43, N-{1-[2-(6-Chloro-2-fluoro-3-methylphenoxy)-1-phenylethyl]piperidin-4-yl}-2-(3-fluorophenyl)pyrimidine-5-carboxamide]
24 | 7.79 | O=C(NC1CCN(C(COc2ccc(F)cc2)c2ccccc2)CC1)c1cnc(-c2cccc(F)c2)nc1 (stereo not drawn) [Example 44, N-{1-[2-(4-Fluorophenoxy)-1-phenylethyl]piperidin-4-yl}-2-(3-fluorophenyl)pyrimidine-5-carboxamide]
25 | 7.85 | Cc1cc(OCC(c2ccccc2)N2CCC(NC(=O)c3cnc(-c4cccc(F)c4)nc3)CC2)ccc1F (stereo not drawn) [Example 45, N-{1-[2-(4-Fluoro-3-methylphenoxy)-1-phenylethyl]piperidin-4-yl}-2-(3-fluorophenyl)pyrimidine-5-carboxamide]
26 | 7.62 | CCc1ccc(OCC(c2ccccc2)N2CCC(NC(=O)c3cnc(-c4cccc(F)c4)nc3)CC2)cc1 (stereo not drawn) [Example 46, N-{1-[2-(4-Ethylphenoxy)-1-phenylethyl]piperidin-4-yl}-2-(3-fluorophenyl)pyrimidine-5-carboxamide]
27 | 7.99 | O=C(NC1CCN(C(COc2ccc(F)cc2F)c2ccccc2)CC1)c1cnc(-c2cccc(F)c2)nc1 (stereo not drawn) [Example 47, N-{1-[2-(2,4-Difluorophenoxy)-1-phenylethyl]piperidin-4-yl}-2-(3-fluorophenyl)pyrimidine-5-carboxamide]
28 | 7.53 | O=C(NC1CCN(C(COc2ccc(C(F)(F)F)cc2)c2ccccc2)CC1)c1cnc(-c2cccc(F)c2)nc1 (stereo not drawn) [Example 48, 2-(3-Fluorophenyl)-N-(1-{1-phenyl-2-[4-(trifluoromethyl)phenoxy]ethyl}piperidin-4-yl)pyrimidine-5-carboxamide]
29 | 8.20 | O=C(NC1CCN(C(COc2ccc(F)c(F)c2)c2ccccc2)CC1)c1cnc(-c2cccc(F)c2)nc1 (stereo not drawn) [Example 49, N-{1-[2-(3,4-Difluorophenoxy)-1-phenylethyl]piperidin-4-yl}-2-(3-fluorophenyl)pyrimidine-5-carboxamide]
30 | 8.02 | O=C(NC1CCN(C(COc2cc(F)c(F)c(F)c2)c2ccccc2)CC1)c1cnc(-c2cccc(F)c2)nc1 (stereo not drawn) [Example 50, 2-(3-Fluorophenyl)-N-{1-[1-phenyl-2-(3,4,5-trifluorophenoxy)ethyl]piperidin-4-yl}pyrimidine-5-carboxamide]
31 | 8.00 | O=C(NC1CCN(C(COc2cc(F)ccc2F)c2ccccc2)CC1)c1cnc(-c2cccc(F)c2)nc1 (stereo not drawn) [Example 51, N-{1-[2-(2,5-Difluorophenoxy)-1-phenylethyl]piperidin-4-yl}-2-(3-fluorophenyl)pyrimidine-5-carboxamide]
32 | 9.34 | O=C(NC1CCN(CC2CCCCC2)CC1)c1cnc(-c2cccc(F)c2)nc1 [Example 52, N-[1-(Cyclohexylmethyl)piperidin-4-yl]-2-(3-fluorophenyl)pyrimidine-5-carboxamide]
33 | 7.23 | O=C(NC1CCN(C(COc2cccc(F)c2F)c2ccccc2)CC1)c1cnc(-c2cccc(F)c2)nc1 (stereo not drawn) [Example 53, N-{1-[2-(2,3-Difluorophenoxy)-1-phenylethyl]piperidin-4-yl}-2-(3-fluorophenyl)pyrimidine-5-carboxamide]
34 | 8.21 | COc1ccccc1OCC(c1ccccc1)N1CCC(NC(=O)c2cnc(-c3cccc(F)c3)nc2)CC1 (stereo not drawn) [Example 54, 2-(3-Fluorophenyl)-N-{1-[2-(2-methoxyphenoxy)-1-phenylethyl]piperidin-4-yl}pyrimidine-5-carboxamide]
35 | 7.34 | O=C(NC1CCN(C(COc2ccc(F)c(F)c2F)c2ccccc2)CC1)c1cnc(-c2cccc(F)c2)nc1 (stereo not drawn) [Example 55, 2-(3-Fluorophenyl)-N-{1-[1-phenyl-2-(2,3,4-trifluorophenoxy)ethyl]piperidin-4-yl}pyrimidine-5-carboxamide]
36 | 7.85 | Cc1ccc(OCC(c2ccccc2)N2CCC(NC(=O)c3cnc(-c4cccc(F)c4)nc3)CC2)cc1C (stereo not drawn) [Example 56, N-{1-[2-(3,4-Dimethylphenoxy)-1-phenylethyl]piperidin-4-yl}-2-(3-fluorophenyl)pyrimidine-5-carboxamide]

Source: patent US8067589B2, “Heterocyclic compounds useful in treating diseases and conditions” (Pfizer Inc, priority 2007, dated 2011)
